Measurements as given in ChEMBL document CHEMBL1124186, “Synthesis and evaluation of tylosin-related macrolides modified at the aldehyde function: a new series of orally effective antibiotics” (1988).
In brackets after ≈: the same amount, converted by molar mass.

Experiments:
Streptococcus pneumoniae = assay: In vitro antimicrobial activity against Streptococcus pneumoniae; type: functional
Enterococcus faecium = assay: In vitro antimicrobial activity against Streptococcus faecium X66; type: functional, streptococcus fae-cium
Streptococcus pyogenes = assay: In vitro antimicrobial activity against Streptococcus pyogenes C203; type: functional
Haemophilus influenzae = assay: In vitro antimicrobial activity against Haemophilus influenzae.; type: functional
[1] = test system: Staphylococcus epidermidis; assay: In vitro antimicrobial activity against Staphylococcus epidermidis EPI1; type: functional
Staphylococcus aureus = assay: In vitro antimicrobial activity against Staphylococcus aureus X1; type: functional

| MIC (Streptococcus pneumoniae) [µg/mL] | MIC (Enterococcus faecium) [µg/mL] | MIC (Streptococcus pyogenes) [µg/mL] | MIC (Haemophilus influenzae) [µg/mL] | MIC [1] [µg/mL] | MIC (Staphylococcus aureus) [µg/mL] | Structure (SMILES) |
| --- | --- | --- | --- | --- | --- | --- |
| 64 (≈ 86 µM) | > 128 | 64 (≈ 86 µM) | > 128 | 128 (≈ 172 µM) | > 128 | CC[C@H]1OC(=O)C[C@@H](O)[C@H](C)[C@@H](O[C@@H]2O[C@H](C)[C@@H](O[C@H]3C[C@@](C)(O)[C@@H](O)[C@H](C)O3)[C@H](N(C)C)[C@H]2O)[C@@H](CCO)C[C@@H](C)C(=O)/C=C/C(C)=C/[C@@H]1CO |
| 64 (≈ 89.6 µM) | 128 (≈ 179 µM) | 64 (≈ 89.6 µM) | > 128 | 16 (≈ 22.4 µM) | 64 (≈ 89.6 µM) | CC[C@H]1OC(=O)C[C@@H](O)[C@H](C)[C@@H](O[C@@H]2O[C@H](C)[C@@H](O[C@H]3C[C@@](C)(O)[C@@H](O)[C@H](C)O3)[C@H](N(C)C)[C@H]2O)[C@@H](C)C[C@@H](C)C(=O)/C=C/C(C)=C/[C@@H]1CO |
| 1 (≈ 0.91 µM) | 4 (≈ 3.64 µM) | 2 (≈ 1.82 µM) | > 128 | 2 (≈ 1.82 µM) | 1 (≈ 0.91 µM) | CC[C@H]1OC(=O)C[C@@H](O)[C@H](C)[C@@H](O[C@@H]2O[C@H](C)[C@@H](O[C@H]3C[C@@](C)(O)[C@@H](O)[C@H](C)O3)[C@H](N(C)C)[C@H]2O)[C@@H](CCOc2ccc(C(=O)c3ccccc3)cc2)C[C@@H](C)C(=O)/C=C/C(C)=C/[C@@H]1CO[C@@H]1O[C@H](C)[C@@H](O)[C@@H](OC)[C@H]1OC |
| 16 (≈ 16 µM) | 64 (≈ 64 µM) | 2 (≈ 2 µM) | > 128 | 8 (≈ 8.01 µM) | 4 (≈ 4 µM) | CC[C@H]1OC(=O)C[C@@H](O)[C@H](C)[C@@H](O[C@@H]2O[C@H](C)[C@@H](O[C@H]3C[C@@](C)(O)[C@@H](O)[C@H](C)O3)[C@H](N(C)C)[C@H]2O)[C@@H](CCN2CCCCCCC2)C[C@@H](C)C(=O)/C=C/C(C)=C/[C@@H]1CO[C@@H]1O[C@H](C)[C@@H](O)[C@@H](O)[C@H]1OC |
| 0.12 (≈ 0.165 µM) | 0.5 (≈ 0.689 µM) | 0.25 (≈ 0.344 µM) | 8 (≈ 11 µM) | 0.5 (≈ 0.689 µM) | 0.5 (≈ 0.689 µM) | CC[C@H]1OC(=O)C[C@@H](O)[C@H](C)[C@@H](O[C@@H]2O[C@H](C)[C@@H](O[C@H]3C[C@@](C)(O)[C@@H](O)[C@H](C)O3)[C@H](N(C)C)[C@H]2O)[C@@H](CC=O)C[C@@H](C)C(=O)/C=C/C(C)=C/[C@@H]1C |
| 16 (≈ 27.4 µM) | 32 (≈ 54.8 µM) | 16 (≈ 27.4 µM) | 32 (≈ 54.8 µM) | 16 (≈ 27.4 µM) | 4 (≈ 6.85 µM) | CC[C@H]1OC(=O)C[C@@H](O)[C@H](C)[C@@H](O[C@@H]2O[C@H](C)[C@@H](O)[C@H](N(C)C)[C@H]2O)[C@@H](CCO)C[C@@H](C)C(=O)/C=C/C(C)=C/[C@@H]1C |
| 8 (≈ 7.43 µM) | > 128 | 8 (≈ 7.43 µM) | > 128 | 4 (≈ 3.72 µM) | 2 (≈ 1.86 µM) | CCOC(=O)NN(CC[C@H]1C[C@@H](C)C(=O)/C=C/C(C)=C/[C@H](CO[C@@H]2O[C@H](C)[C@@H](O)[C@@H](OC)[C@H]2OC)[C@@H](CC)OC(=O)C[C@@H](O)[C@H](C)[C@H]1O[C@@H]1O[C@H](C)[C@@H](O[C@H]2C[C@@](C)(O)[C@@H](O)[C@H](C)O2)[C@H](N(C)C)[C@H]1O)C(=O)OCC |
| 64 (≈ 69.6 µM) | > 128 | 4 (≈ 4.35 µM) | > 128 | 1 (≈ 1.09 µM) | 1 (≈ 1.09 µM) | CC[C@H]1OC(=O)C[C@@H](O)[C@H](C)[C@@H](O[C@@H]2O[C@H](C)[C@@H](O[C@H]3C[C@@](C)(O)[C@@H](O)[C@H](C)O3)[C@H](N(C)C)[C@H]2O)[C@@H](CCF)C[C@@H](C)C(=O)/C=C/C(C)=C/[C@@H]1CO[C@@H]1O[C@H](C)[C@@H](O)[C@@H](OC)[C@H]1OC |
| 16 (≈ 15.8 µM) | 128 (≈ 126 µM) | 4 (≈ 3.94 µM) | 128 (≈ 126 µM) | 2 (≈ 1.97 µM) | 2 (≈ 1.97 µM) | CC[C@H]1OC(=O)C[C@@H](O)[C@H](C)[C@@H](O[C@@H]2O[C@H](C)[C@@H](O[C@H]3C[C@@](C)(O)[C@@H](O)[C@H](C)O3)[C@H](N(C)C)[C@H]2O)[C@@H](CCI)C[C@@H](C)C(=O)/C=C/C(C)=C/[C@@H]1CO[C@@H]1O[C@H](C)[C@@H](O)[C@@H](O)[C@H]1OC |
| 16 (≈ 18.3 µM) | > 128 | 128 (≈ 147 µM) | > 128 | 32 (≈ 36.7 µM) | 64 (≈ 73.3 µM) | CC[C@H]1OC(=O)C[C@@H](O)[C@H](C)[C@@H](O[C@@H]2O[C@H](C)[C@@H](O[C@H]3C[C@@](C)(O)[C@@H](O)[C@H](C)O3)[C@H](N(C)C)[C@H]2O)[C@@H](CCN2C(=O)c3ccccc3C2=O)C[C@@H](C)C(=O)/C=C/C(C)=C/[C@@H]1CO |
| 16 (≈ 15.4 µM) | 128 (≈ 123 µM) | 2 (≈ 1.92 µM) | > 128 | 1 (≈ 0.962 µM) | 1 (≈ 0.962 µM) | CC[C@H]1OC(=O)C[C@@H](O)[C@H](C)[C@@H](O[C@@H]2O[C@H](C)[C@@H](O[C@H]3C[C@@](C)(O)[C@@H](O)[C@H](C)O3)[C@H](N(C)C)[C@H]2O)[C@@H](CCOc2ccc([N+](=O)[O-])cc2)C[C@@H](C)C(=O)/C=C/C(C)=C/[C@@H]1CO[C@@H]1O[C@H](C)[C@@H](O)[C@@H](OC)[C@H]1OC |
| 64 (≈ 89.9 µM) | > 128 | 128 (≈ 180 µM) | > 128 | 64 (≈ 89.9 µM) | 128 (≈ 180 µM) | CC[C@H]1C[C@@H](C)C(=O)/C=C/C(C)=C/[C@H](C)[C@@H](CC)OC(=O)C[C@@H](O)[C@H](C)[C@H]1O[C@@H]1O[C@H](C)[C@@H](O[C@H]2C[C@@](C)(O)[C@@H](O)[C@H](C)O2)[C@H](N(C)C)[C@H]1O |
| 4 (≈ 4.72 µM) | 32 (≈ 37.8 µM) | 8 (≈ 9.44 µM) | 64 (≈ 75.6 µM) | 16 (≈ 18.9 µM) | 16 (≈ 18.9 µM) | CC[C@H]1OC(=O)C[C@@H](O)[C@H](C)[C@@H](O[C@@H]2O[C@H](C)[C@@H](O[C@H]3C[C@@](C)(O)[C@@H](O)[C@H](C)O3)[C@H](N(C)C)[C@H]2O)[C@@H](CCNCCc2ccccc2)C[C@@H](C)C(=O)/C=C/C(C)=C/[C@@H]1CO |
| 1 (≈ 1.12 µM) | 4 (≈ 4.48 µM) | 0.25 (≈ 0.28 µM) | – | 0.5 (≈ 0.56 µM) | 0.5 (≈ 0.56 µM) | CC[C@H]1OC(=O)C[C@@H](O)[C@H](C)[C@@H](O[C@@H]2O[C@H](C)[C@@H](O)[C@H](N(C)C)[C@H]2O)[C@@H](CCOc2cccc(N(C)C)c2)C[C@@H](C)C(=O)/C=C/C(C)=C/[C@@H]1CO[C@@H]1O[C@H](C)[C@@H](O)[C@@H](OC)[C@H]1OC |
| 1 (≈ 1.14 µM) | 4 (≈ 4.55 µM) | 1 (≈ 1.14 µM) | – | 0.25 (≈ 0.284 µM) | 0.25 (≈ 0.284 µM) | CC[C@H]1OC(=O)C[C@@H](O)[C@H](C)[C@@H](O[C@@H]2O[C@H](C)[C@@H](O)[C@H](N(C)C)[C@H]2O)[C@@H](CCOc2ccc(OC)cc2)C[C@@H](C)C(=O)/C=C/C(C)=C/[C@@H]1CO[C@@H]1O[C@H](C)[C@@H](O)[C@@H](OC)[C@H]1OC |
| 0.25 (≈ 0.285 µM) | 8 (≈ 9.11 µM) | 1 (≈ 1.14 µM) | – | 0.25 (≈ 0.285 µM) | 0.25 (≈ 0.285 µM) | CC[C@H]1OC(=O)C[C@@H](O)[C@H](C)[C@@H](O[C@@H]2O[C@H](C)[C@@H](O)[C@H](N(C)C)[C@H]2O)[C@@H](CCOCCc2ccccc2)C[C@@H](C)C(=O)/C=C/C(C)=C/[C@@H]1CO[C@@H]1O[C@H](C)[C@@H](O)[C@@H](OC)[C@H]1OC |
| 4 (≈ 5.38 µM) | 8 (≈ 10.8 µM) | 0.5 (≈ 0.672 µM) | – | 1.2 (≈ 1.61 µM) | 0.25 (≈ 0.336 µM) | CC[C@H]1C[C@@H](C)C(=O)/C=C/C(C)=C/[C@H](CO[C@@H]2O[C@H](C)[C@@H](O)[C@@H](O)[C@H]2OC)[C@@H](CC)OC(=O)C[C@@H](O)[C@H](C)[C@H]1O[C@@H]1O[C@H](C)[C@@H](O)[C@H](N(C)C)[C@H]1O |
